Laboratory results as given in ChEMBL document CHEMBL1201862, “PubChem BioAssay data set” (2004).
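Compound exposure: 48 hours, 5 concentrations, 96-well plates. The concentration for 50% growth inhibition is given as GI50.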 Calls of active or inactive are those of the source. Cut-off read from the data, not from the text of the source: active = GI50 up to about 1.1 µM and inactive = higher.

How the values were obtained:
Test in all cases: NCI tumour cell line growth inhibition, 48 h
HCT-15 = system: HCT-15
SK-OV-3 = system: SK-OV-3
SK-MEL-28 = system: SK-MEL-28
Malme-3M = system: Malme-3M
CCRF-CEM = system: CCRF-CEM
IGROV-1 = system: IGROV-1
EKVX = system: EKVX
MDA-MB-435 = system: MDA-MB-435
OVCAR-5 = system: OVCAR-5
MDA-N = system: MDA-N
HOP-62 = system: HOP-62
T47D = system: T47D
SN12C = system: SN12C
NCI-H226 = system: NCI-H226
UACC-257 = system: UACC-257
M14 = system: M14
MDA-MB-231 = system: MDA-MB-231
RXF 393 = system: RXF 393

| Structure (SMILES) | GI50 (HCT-15) [µM] | GI50 (SK-OV-3) | GI50 (SK-MEL-28) | GI50 (Malme-3M) | GI50 (CCRF-CEM) | GI50 (IGROV-1) | GI50 (EKVX) | GI50 (MDA-MB-435) | GI50 (OVCAR-5) | GI50 (MDA-N) | GI50 (HOP-62) | GI50 (T47D) | GI50 (SN12C) | GI50 (NCI-H226) | GI50 (UACC-257) | GI50 (M14) | GI50 (MDA-MB-231) | GI50 (RXF 393) |
| --- | --- | --- | --- | --- | --- | --- | --- | --- | --- | --- | --- | --- | --- | --- | --- | --- | --- | --- |
| COc1cc(OC)c(OC)cc1/C=C/c1nc2ccccc2s1 | > 100 | > 100 µM (inactive) | > 100 µM (inactive) | > 100 µM (inactive) | > 100 µM (inactive) | > 100 µM (inactive) | 69.7 µM (inactive) | 3.1 µM (inactive) | > 100 µM (inactive) | 17.5 µM (inactive) | 29.1 µM (inactive) | 8.45 µM (inactive) | > 100 µM (inactive) | > 100 µM (inactive) | > 100 µM (inactive) | 17.6 µM (inactive) | > 100 µM (inactive) | 23.3 µM (inactive) |
| FC(F)(F)c1cccc(-c2nc3nc(Cl)c(Cl)nc3[nH]2)c1 | 2.64 | 2.86 µM (inactive) | 3.13 µM (inactive) | 1.73 µM (inactive) | 1.95 µM (inactive) | 2.99 µM (inactive) | 2.96 µM (inactive) | 2.52 µM (inactive) | 2.48 µM (inactive) | 2.18 µM (inactive) | 3.22 µM (inactive) | 1.29 µM (inactive) | 2.69 µM (inactive) | 1.67 µM (inactive) | 2.22 µM (inactive) | 3.42 µM (inactive) | 2.02 µM (inactive) | 3.1 µM (inactive) |
| CCn1c(-c2cc(OC)cc(OC)c2)nc2c1C(=O)c1ccccc1C2=O | > 100 | 3.9 µM (inactive) | > 100 µM (inactive) | > 100 µM (inactive) | > 100 µM (inactive) | > 100 µM (inactive) | > 100 µM (inactive) | > 100 µM (inactive) | > 100 µM (inactive) | > 100 µM (inactive) | 64.6 µM (inactive) | > 100 µM (inactive) | > 100 µM (inactive) | > 100 µM (inactive) | > 100 µM (inactive) | > 100 µM (inactive) | > 100 µM (inactive) | 13.9 µM (inactive) |
| COc1ccc(C(OCC2OC3(COC(c4ccccc4)(c4ccc(OC)cc4)c4ccc(OC)cc4)C(Oc4nc(=O)ccn43)C2O)(c2ccccc2)c2ccc(OC)cc2)cc1 (stereo unspecified) | > 100 | > 100 µM (inactive) | > 100 µM (inactive) | > 100 µM (inactive) | > 100 µM (inactive) | > 100 µM (inactive) | > 100 µM (inactive) | > 100 µM (inactive) | > 100 µM (inactive) | > 100 µM (inactive) | > 100 µM (inactive) | > 100 µM (inactive) | > 100 µM (inactive) | > 100 µM (inactive) | > 100 µM (inactive) | > 100 µM (inactive) | > 100 µM (inactive) | > 100 µM (inactive) |
| S=C1N=C2C(=N1)n1c3c(c4ccccc41)CCCC23 (stereo unspecified) | 46.3 | > 100 µM (inactive) | > 100 µM (inactive) | 64.9 µM (inactive) | 48.6 µM (inactive) | 32.6 µM (inactive) | > 100 µM (inactive) | 55.7 µM (inactive) | > 100 µM (inactive) | 63.8 µM (inactive) | 46 µM (inactive) | 26 µM (inactive) | 29.4 µM (inactive) | 34.9 µM (inactive) | 47.4 µM (inactive) | > 100 µM (inactive) | 66.4 µM (inactive) | > 100 µM (inactive) |
| Cc1cn(C2CC(n3cc(Cn4cc(F)c(=O)[nH]c4=O)nn3)C(CO)O2)c(=O)[nH]c1=O (stereo unspecified) | > 100 | > 100 µM (inactive) | > 100 µM (inactive) | > 100 µM (inactive) | > 100 µM (inactive) | > 100 µM (inactive) | > 100 µM (inactive) | > 100 µM (inactive) | > 100 µM (inactive) | > 100 µM (inactive) | > 100 µM (inactive) | > 100 µM (inactive) | > 100 µM (inactive) | > 100 µM (inactive) | > 100 µM (inactive) | > 100 µM (inactive) | > 100 µM (inactive) | > 100 µM (inactive) |
| CS[C@]12[C@@H]3C(=O)N(C)C(=O)[C@@H]3[C@](C)(C(=O)N1C)C(=O)N2c1ccccc1 | > 100 | > 100 µM (inactive) | > 100 µM (inactive) | > 100 µM (inactive) | > 100 µM (inactive) | > 100 µM (inactive) | > 100 µM (inactive) | > 100 µM (inactive) | > 100 µM (inactive) | > 100 µM (inactive) | > 100 µM (inactive) | > 100 µM (inactive) | > 100 µM (inactive) | > 100 µM (inactive) | > 100 µM (inactive) | > 100 µM (inactive) | > 100 µM (inactive) | > 100 µM (inactive) |
| CC(=O)OCC1OC(n2c(-c3ccccc3)c(C(C)=O)c(-c3ccc(Cl)cc3)c(C#N)c2=S)C(OC(C)=O)C(OC(C)=O)C1OC(C)=O (stereo unspecified) | 11.6 | > 100 µM (inactive) | > 100 µM (inactive) | > 100 µM (inactive) | 29.9 µM (inactive) | > 100 µM (inactive) | > 100 µM (inactive) | > 100 µM (inactive) | > 100 µM (inactive) | 62.8 µM (inactive) | > 100 µM (inactive) | > 100 µM (inactive) | > 100 µM (inactive) | > 100 µM (inactive) | > 100 µM (inactive) | > 100 µM (inactive) | 70.3 µM (inactive) | 65.5 µM (inactive) |
| CN(C)CCCNc1nnc(NCCCN(C)C)c2c(=O)c3sccc3[nH]c12 | 6.62 | 12.9 µM (inactive) | 28.8 µM (inactive) | 15.5 µM (inactive) | 9.48 µM (inactive) | 5.69 µM (inactive) | 8.91 µM (inactive) | 8.15 µM (inactive) | 16.6 µM (inactive) | 3.4 µM (inactive) | 5.77 µM (inactive) | 19.4 µM (inactive) | 3.19 µM (inactive) | 8.95 µM (inactive) | 22.4 µM (inactive) | 11.7 µM (inactive) | 6 µM (inactive) | 15 µM (inactive) |
| O=C1C2=C(C(=O)c3c(O)ccc(O)c31)[C@@H](O)[C@@H](O)[C@@H](O)C2 | 2.76 | 18.2 µM (inactive) | 2.26 µM (inactive) | 1.14 µM (inactive) | 0.0486 µM (active) | 2.75 µM (inactive) | 2.77 µM (inactive) | 1.57 µM (inactive) | 7.96 µM (inactive) | 1.49 µM (inactive) | 3.97 µM (inactive) | 1.1 µM (active) | 2.01 µM (inactive) | 15.1 µM (inactive) | 0.957 µM (active) | 1.86 µM (inactive) | 2.14 µM (inactive) | 1.85 µM (inactive) |
| CCCCc1ccc(Nc2nc(Cl)c3c(ncn3COCCOC(C)=O)n2)cc1 | 16.3 | 17.1 µM (inactive) | – | 19.4 µM (inactive) | 28.2 µM (inactive) | 19.2 µM (inactive) | 19.8 µM (inactive) | 17.7 µM (inactive) | 18.5 µM (inactive) | 18.8 µM (inactive) | 16.7 µM (inactive) | 17.8 µM (inactive) | 19.3 µM (inactive) | 17.4 µM (inactive) | 17.1 µM (inactive) | 17.9 µM (inactive) | 18.5 µM (inactive) | 12.9 µM (inactive) |
| COc1ccc(/C=C2\N=C3NC(=O)C(N4CCCCC4)=C(N)N3C2=O)cc1 | > 100 | > 100 µM (inactive) | > 100 µM (inactive) | > 100 µM (inactive) | > 100 µM (inactive) | > 100 µM (inactive) | > 100 µM (inactive) | > 100 µM (inactive) | > 100 µM (inactive) | > 100 µM (inactive) | – | > 100 µM (inactive) | > 100 µM (inactive) | > 100 µM (inactive) | > 100 µM (inactive) | > 100 µM (inactive) | > 100 µM (inactive) | > 100 µM (inactive) |
| C(=N\OCCc1ccccc1)/c1cccnc1 | > 100 | > 100 µM (inactive) | > 100 µM (inactive) | > 100 µM (inactive) | > 100 µM (inactive) | > 100 µM (inactive) | > 100 µM (inactive) | > 100 µM (inactive) | > 100 µM (inactive) | > 100 µM (inactive) | > 100 µM (inactive) | > 100 µM (inactive) | > 100 µM (inactive) | > 100 µM (inactive) | > 100 µM (inactive) | > 100 µM (inactive) | > 100 µM (inactive) | > 100 µM (inactive) |
| COc1ccc2nc3cc([N+](=O)[O-])ccc3c(Nc3ccc(S(=O)(=O)N=C(N)N)cc3)c2c1 | 36.2 | 58.5 µM (inactive) | > 100 µM (inactive) | 14 µM (inactive) | 11 µM (inactive) | – | 15.2 µM (inactive) | 39.9 µM (inactive) | > 100 µM (inactive) | 39.3 µM (inactive) | 27.2 µM (inactive) | 9.91 µM (inactive) | 48.1 µM (inactive) | 20.4 µM (inactive) | 51.2 µM (inactive) | 30.5 µM (inactive) | 17.2 µM (inactive) | 40.1 µM (inactive) |
| Cc1nc(O)nc2nc3cc(Cl)cc(Cl)c3c(NC(C)(CO)CO)c12 | > 100 | 26.8 µM (inactive) | > 100 µM (inactive) | > 100 µM (inactive) | > 100 µM (inactive) | 35.9 µM (inactive) | > 100 µM (inactive) | > 100 µM (inactive) | – | > 100 µM (inactive) | 23.5 µM (inactive) | > 100 µM (inactive) | > 100 µM (inactive) | > 100 µM (inactive) | > 100 µM (inactive) | > 100 µM (inactive) | 14.7 µM (inactive) | 27.8 µM (inactive) |
